# Laboratory results reported in patent US8722626B2, “Method for controlling fibrosis and other pathological deposits in tissues comprising administering a GHRP-6 composition” (Centro de Ingenieria Genetica y Biotecnologia, priority 2006, dated 2014).
# Columns and labels:
# [1] = system: pulmonary fibrosis in rats (Bleomycin); test: Control of pulmonary fibrosis induced by Bleomycin in rats (Example 4); format: in vivo, rat; settings: 4 weeks; for Grade 0 pulmonary fibrosis (no evidences of fibrosis), animals per group / Grade 1 pulmonary fibrosis (predominantly vascular), animals per group / Grade 2 pulmonary fibrosis (additional peri-bronchial compromise), animals per group / Grade 3 pulmonary fibrosis (also interalveolar septum), animals per group: N = 15; for OH—P content (hydroxiproline) in lungs: end of treatment, 15 fragments per group
# Protocol: In this case, the process as induced by sustained administration of the anti-neoplasic agent Bleomycin (Ble) at a 2.5 U/kg dosage twice a week during 4 weeks. […] This point forward, the administration of Ble was suspended and treatment with the pharmaceutical composition containing the GHRP-6 was started. The treatment was applied once daily, at 100 and 400 μg/kg in a 1 ml volume by intraperitoneal route during 4 weeks. […] When treatments concluded, the animals were sacrificed by anesthesia overdose and lungs and blood serum were collected. Tissue fragments were fixed in formalin neutral and processed by hematoxylin/eosin staining, or by Masson's trichromic staining, to evaluate the general damage and the severity of fibrotic indurations. Other fragments of lung tissues were stored at −70° C. until processing to determine the content of hydroxiproline by acid hydrolysis in 1N HCl, and also the […] levels of redox metabolism markers. Biochemical determinations were carried out by calculating the total protein content by the Bradford's method. Histological evaluation of the fibro-proliferative reaction in lungs includes the process of peri-vascular, peri-bronchial and septal fibrosis. The overall grade of pulmonary fibrosis was established according to the extension and intensity of the process in these three segments, to determine the percent of animals affected or unaffected at the end of the treatment with the GHRP-6. The numbers of animals in every group with fibrotic lungs according to the severity of fibrosis are:
# Grade 0—No evidences of fibrosis or only thin and diffuse fiber or areolar material foci present, without respiratory compromise.
# Grade 1—Fibrosis predominantly vascular in more than 75% of arterioles and capillaries.
# Grade 2—Fibrosis predominantly vascular in more than 75% of arterioles and capillaries, with additional peri-bronchial compromise.
# Grade 3—Fibrosis predominantly vascular in more than 75% of arterioles and capillaries, with additional peri-bronchial compromise. Fibrotic material is also detected in the interalveolar septum.
# [2] = system: male APP transgenic mice expressing the beta-amiloid precursor protein; test: Beta-amiloid protein deposition in brain of APP transgenic mice (Example 5); format: in vivo, mouse; design: SODt (oxidative stress marker) / Catalase (oxidative stress marker) / HPT (oxidative stress marker) / MDA (oxidative stress marker): unit not given here; settings: 8 weeks; for Catalase (oxidative stress marker) / HPT (oxidative stress marker) / MDA (oxidative stress marker) / SODt (oxidative stress marker): brain tissues; for No. of deposits positive to Congo Red / No. of deposits positive to beta-amiloid / Size of amiloid plaques: brain
# Protocol: This study was conducted to evaluate the influence of the long-term administration (8 weeks) of the GHRP-6 on the biochemical and morphological markers in the brain of transgenic mice expressing the beta-amiloid precursor protein, these markers also indicating the progression of the central nervous system damage. For the present study, 20-25 g in body weight male APP transgenic mice were acquired, expressing the beta-amiloid precursor protein. Animals (N=30) were randomly distributed in:
# Placebo group—Physiological saline solution 0.9%.
# Dosage I group—GHRP-6 at 50 μg/kg of body weight in saline solution.
# Dosage II group—GRHP-6 at 100 μg/kg of body weight in saline solution.
# Treatments were applied by the intraperitoneal route in 1 ml, five days a week during 8 weeks, with animals receiving 40 administrations of GHRP-6. We knew from previous exploratory pilot studies that this period of time was sufficient for improving cognitive and motor skills in animals under stress.
# After 8 weeks of treatment, mice were sacrificed by anesthesia overdose, and perfused in situ with saline solution. Encephala were extracted, one encephalon was frozen in dry-ice and the other was fixed in 4% para-formaldehyde neutral. Samples were cryo-sliced at 10 μm and slices were stained with hematoxylin/eosin, Congo Red, or incubated with an antibody specific for the beta-amiloid protein. Morphometric procedures were carried out by microscopic imaging capture by a camera connected to the microscope, and the images were analyzed with the DIGIPAT software.
# The number of fibrillar deposits of the beta-amiloid protein positive to Congo Red staining.
# The number of foci immunoreactive to the antibody that recognizes the beta-amiloid protein.
# Size of the beta-amiloid plaques in the brain, recognized at 200× and 400× magnifications (μm^2).
# Brain concentration of myo-inositol as indicator of aging and brain metabolism deterioration (μmol/g of tissue).
# [3] = system: human keloid fragments xeno-transplanted in athymic mice; test: Human keloid fragments xeno-transplanted into athymic mice (Example 7); format: in vivo, mouse
# Text: To study the effect of peptides GHRP-6, GHRP-2, Hexarelin and/or Ghrelin in eradicating the pathological deposits of physiological material in the skin, human keloid fragments were xeno-transplanted into the dorsal region in athymic mice. After 72 hrs of evolution, to corroborate grafting and viability of xeno-transplants, the animals (N=6) were randomly distributed into the following experimental groups: • A—Saline control group (vehicle of the active principles). • B—Group receiving GHRP-6. • C—Group receiving GHRP-2. • D—Group receiving Ghrelin. • E—Group receiving Hexarelin. • Treatments were applied once every 24 hrs during 7 days. The substances were infiltrated at the edges in the implants, for local bioavailability of the active principles, at dosages from 5 micrograms to 1 milligram. After the treatment period, the animals were sacrificed and the implants extracted to evaluate the pharmacological response to every substance. Samples were weighed and fragmented for histological studies and biochemical determinations of collagen. The fragments for histological studies were fixed in 10% formalin neutral, and those fragments for biochemical analyses were stored at −70° C. • The parameters studied were: • a—Wet weight of the graft collected. • b—Hydroxiproline content in the tissue. • c—Number of microscopic fields with tissue positive to Picrosirius red staining and trichromic Masson's staining.
# [4] = Dosage I: 100 μg/kg i.p. once daily
# [5] = Dosage II: 400 μg/kg i.p. once daily
# [6] = Dosage I: 50 μg/kg i.p. five days a week
# [7] = Dosage II: 100 μg/kg i.p. five days a week
# [8] = infiltrated at the edges in the implants once every 24 hrs during 7 days, 5 micrograms to 1 milligram
substance,measurement,setting,value
GHRP-6,"Grade 0 pulmonary fibrosis (no evidences of fibrosis), animals per group",[1]; [4],3
same,"Grade 1 pulmonary fibrosis (predominantly vascular), animals per group",[1]; [4],10
same,"Grade 2 pulmonary fibrosis (additional peri-bronchial compromise), animals per group",[1]; [4],2
same,"Grade 3 pulmonary fibrosis (also interalveolar septum), animals per group",[1]; [4],0
same,OH—P content (hydroxiproline) in lungs,[1]; [4],91.24 ± 16.84 μg/g of total proteins
same,"Grade 0 pulmonary fibrosis (no evidences of fibrosis), animals per group",[1]; [5],8
same,"Grade 1 pulmonary fibrosis (predominantly vascular), animals per group",[1]; [5],7
same,"Grade 2 pulmonary fibrosis (additional peri-bronchial compromise), animals per group",[1]; [5],0
same,"Grade 3 pulmonary fibrosis (also interalveolar septum), animals per group",[1]; [5],0
same,OH—P content (hydroxiproline) in lungs,[1]; [5],12.75 ± 3.61 μg/g of total proteins
same,Animals classified as grade 0 (pulmonary fibrosis),[1]; dosage II: 400 μg/kg i.p. once daily,> 50%
same,Myo-inositol concentration in the brain.,[2]; [6],49.35 ± 10 μmol/g of tissue
same,Myo-inositol concentration in the brain.,[2]; [7],27.45 ± 8.61 μmol/g of tissue
same,Catalase (oxidative stress marker),[2]; Dosage I: 50 μg/kg i.p.,81.6 ± 15.25
same,HPT (oxidative stress marker),[2]; Dosage I: 50 μg/kg i.p.,54.3 ± 11.87
same,MDA (oxidative stress marker),[2]; Dosage I: 50 μg/kg i.p.,0.77 ± 1.56
same,SODt (oxidative stress marker),[2]; Dosage I: 50 μg/kg i.p.,611.17 ± 44.79
same,Catalase (oxidative stress marker),[2]; Dosage II: 100 μg/kg i.p.,60.18 ± 13.67
same,HPT (oxidative stress marker),[2]; Dosage II: 100 μg/kg i.p.,21.25 ± 5.44
same,MDA (oxidative stress marker),[2]; Dosage II: 100 μg/kg i.p.,0.4 ± 0.02
same,SODt (oxidative stress marker),[2]; Dosage II: 100 μg/kg i.p.,863.22 ± 50.3
same,No. of deposits positive to Congo Red,[2]; [6],21.78 ± 6.57
same,No. of deposits positive to beta-amiloid,[2]; [6],15.11 ± 3.27
same,Size of amiloid plaques,[2]; [6],15.51 ± 6.44 μm^2
same,No. of deposits positive to Congo Red,[2]; [7],14.52 ± 4.18
same,No. of deposits positive to beta-amiloid,[2]; [7],13.58 ± 4.61
same,Size of amiloid plaques,[2]; [7],10.88 ± 4.1 μm^2
same,No. of fields positive to collagen-specific staining,"[3]; Picrosirius red and trichromic Masson's staining, 4× and 10× averaged, infiltrated once every 24 hrs during 7 days",11.45
same,No. of microscopic fields with mast cells (20X magnif.),"[3]; aniline blue staining, infiltrated once every 24 hrs during 7 days",9.54 ± 2.15
same,Hydroxiproline content in the tissue,[3]; [8],88.27 ± 4.61 µg/g
same,Wet weight of the graft collected,[3]; [8],6.71 ± 1.18 a grams
